What was measured:
[1] = 101.33 kPa, Liquid; for thermal conductivity: transient hot wire; for mass density: Vibrating tube method; for viscosity: Cone and plate viscometry; for electrical conductivity: Direct current cell with electrodes
[2] = molar heat capacity at constant pressure; details: 101.33 kPa, Liquid, Small sample (50 mg) DSC

CCCCCCCCCC(=O)[O-].CCCCCCCCCCCCCC[P+](CCCCCC)(CCCCCC)CCCCCC [trihexyltetradecylphosphonium decanoate]
Details	electrical conductivity [S/m]	mass density [kg/m3]	molar heat capacity at constant pressure [J/K/mol]	thermal conductivity [W/m/K]	viscosity [mPa·s]
[1], 278.09 K	–	–	–	0.1601	–
[1], 288 K	–	–	–	0.1591	–
[1], 293.15 K	–	880.4	–	–	–
[1], 293.2 K	–	–	–	–	546.3
[1], 297.79 K	–	–	–	0.1571	–
[1], 298.15 K	–	877.3	–	–	–
[1], 298.2 K	–	–	–	–	409.8
[1], 298.8 K	0.00174	–	–	–	–
[1], 303.15 K	–	874.6	–	–	–
[1], 303.2 K	–	–	–	–	314.5
[1], 303.8 K	0.00239	–	–	–	–
[1], 308 K	0.00297	–	–	–	–
[1], 308.16 K	–	–	–	0.1545	–
[1], 308.2 K	–	–	–	–	242.5
[1], 313.15 K	–	868.1	–	–	–
[1], 313.2 K	–	–	–	–	189.8
[1], 313.8 K	0.00395	–	–	–	–
[1], 318.13 K	–	–	–	0.1542	–
[1], 318.2 K	–	–	–	–	151.3
[1], 319.6 K	0.00506	–	–	–	–
[1], 323.15 K	–	862	–	–	–
[1], 323.2 K	0.00631	–	–	–	121.8
[1], 326.82 K	–	–	–	0.1535	–
[1], 328.2 K	0.00763	–	–	–	99.78
[1], 333.15 K	–	855.7	–	–	–
[1], 333.2 K	–	–	–	–	82.68
[1], 333.4 K	0.00949	–	–	–	–
[1], 338.2 K	–	–	–	–	68.76
[1], 338.3 K	0.0118	–	–	–	–
[1], 338.5 K	–	–	–	0.1515	–
[1], 343.15 K	–	849.7	–	–	–
[1], 343.2 K	–	–	–	–	58.07
[1], 343.5 K	0.0137	–	–	–	–
[1], 347.3 K	–	–	–	0.1502	–
[1], 348.2 K	–	–	–	–	49.28
[1], 349.7 K	0.0171	–	–	–	–
[1], 353.15 K	–	843.3	–	–	–
[1], 353.2 K	–	–	–	–	42.21
[1], 358.2 K	–	–	–	–	36.41
[1], 358.21 K	–	–	–	0.1493	–
[1], 363.15 K	–	837.4	–	–	–
[1], 363.2 K	–	–	–	–	31.71
[1], 368.2 K	–	–	–	–	27.59
[2], 293.15 K	–	–	1181.2	–	–
[2], 298.15 K	–	–	1191.7	–	–
[2], 303.15 K	–	–	1199.5	–	–
[2], 308.15 K	–	–	1209.3	–	–
[2], 313.15 K	–	–	1217.2	–	–
[2], 318.15 K	–	–	1221.8	–	–
[2], 323.15 K	–	–	1230.3	–	–
[2], 328.15 K	–	–	1238.2	–	–
[2], 333.15 K	–	–	1246	–	–
[2], 338.15 K	–	–	1250.6	–	–
[2], 343.15 K	–	–	1264.4	–	–
[2], 348.15 K	–	–	1269.6	–	–
[2], 353.15 K	–	–	1278.8	–	–
[2], 358.15 K	–	–	1285.3	–	–
[2], 363.15 K	–	–	1296.5	–	–

CCCCCCCC(=O)[O-].CCCCCCCCCCCCCC[P+](CCCCCC)(CCCCCC)CCCCCC [trihexyl(tetradecyl)phosphonium octanoate]
Details	electrical conductivity [S/m]	mass density [kg/m3]	molar heat capacity at constant pressure [J/K/mol]	thermal conductivity [W/m/K]	viscosity [mPa·s]
[1], 278.28 K	–	–	–	0.1611	–
[1], 288.24 K	–	–	–	0.1601	–
[1], 293.15 K	–	884.5	–	–	–
[1], 293.2 K	–	–	–	–	513.6
[1], 297.87 K	–	–	–	0.1581	–
[1], 298.15 K	–	881.4	–	–	–
[1], 298.2 K	–	–	–	–	400.2
[1], 300.6 K	0.00251	–	–	–	–
[1], 303.15 K	–	878.4	–	–	–
[1], 303.2 K	–	–	–	–	301.2
[1], 303.6 K	0.00345	–	–	–	–
[1], 307.71 K	–	–	–	0.1567	–
[1], 308 K	0.00428	–	–	–	–
[1], 308.2 K	–	–	–	–	230.8
[1], 313.15 K	–	872.1	–	–	–
[1], 313.2 K	–	–	–	–	179.3
[1], 313.4 K	0.0057	–	–	–	–
[1], 317.92 K	–	–	–	0.1561	–
[1], 318.2 K	–	–	–	–	141.2
[1], 319 K	0.0073	–	–	–	–
[1], 323.15 K	–	865.9	–	–	–
[1], 323.2 K	–	–	–	–	113
[1], 323.8 K	0.0091	–	–	–	–
[1], 328.17 K	–	–	–	0.1547	–
[1], 328.2 K	–	–	–	–	91.42
[1], 328.4 K	0.011	–	–	–	–
[1], 333.15 K	–	859.8	–	–	–
[1], 333.2 K	0.0137	–	–	–	75.22
[1], 337.66 K	–	–	–	0.1527	–
[1], 338.2 K	–	–	–	–	62.47
[1], 338.6 K	0.017	–	–	–	–
[1], 343 K	0.0198	–	–	–	–
[1], 343.15 K	–	853.7	–	–	–
[1], 343.2 K	–	–	–	–	52.65
[1], 347.76 K	–	–	–	0.1507	–
[1], 348.2 K	–	–	–	–	44.4
[1], 349.5 K	0.0247	–	–	–	–
[1], 353.15 K	–	847.6	–	–	–
[1], 353.2 K	–	–	–	–	37.98
[1], 358.08 K	–	–	–	0.1497	–
[1], 358.2 K	–	–	–	–	32.78
[1], 363.15 K	–	841.6	–	–	–
[1], 363.2 K	–	–	–	–	28.12
[1], 368.2 K	–	–	–	–	24.48
[2], 293.15 K	–	–	1138.1	–	–
[2], 298.15 K	–	–	1150.7	–	–
[2], 303.15 K	–	–	1160.7	–	–
[2], 308.15 K	–	–	1170.1	–	–
[2], 313.15 K	–	–	1178.9	–	–
[2], 318.15 K	–	–	1185.8	–	–
[2], 323.15 K	–	–	1192.7	–	–
[2], 328.15 K	–	–	1199.6	–	–
[2], 333.15 K	–	–	1206.5	–	–
[2], 338.15 K	–	–	1213.4	–	–
[2], 343.15 K	–	–	1220.9	–	–
[2], 348.15 K	–	–	1228.4	–	–
[2], 353.15 K	–	–	1235.3	–	–
[2], 358.15 K	–	–	1242.2	–	–
[2], 363.15 K	–	–	1247.2	–	–

CCCCCCCCn1cc[n+](C)c1.O=S(=O)([N-]S(=O)(=O)C(F)(F)F)C(F)(F)F
[1]
Details	thermal conductivity [W/m/K]
280.03 K	0.1289
288.73 K	0.1279
297.76 K	0.1279
307.59 K	0.1279
318.58 K	0.1265
328.58 K	0.1259
337.48 K	0.1259
347.72 K	0.1259
357.76 K	0.1245

CCCCCC(=O)[O-].CCCCCCCCCCCCCC[P+](CCCCCC)(CCCCCC)CCCCCC [trihexyl(tetradecyl)phosphonium hexanoate]
Details	electrical conductivity [S/m]	mass density [kg/m3]	molar heat capacity at constant pressure [J/K/mol]	thermal conductivity [W/m/K]	viscosity [mPa·s]
[1], 278.22 K	–	–	–	0.1591	–
[1], 287.73 K	–	–	–	0.1574	–
[1], 293.15 K	–	888.5	–	–	–
[1], 293.2 K	–	–	–	–	435.1
[1], 298.15 K	–	885.5	–	–	–
[1], 298.2 K	–	–	–	–	343.1
[1], 298.98 K	–	–	–	0.156	–
[1], 299.6 K	0.0033	–	–	–	–
[1], 303.15 K	–	882.3	–	–	–
[1], 303.2 K	–	–	–	–	260.7
[1], 303.8 K	0.00454	–	–	–	–
[1], 307.3 K	–	–	–	0.1547	–
[1], 308.1 K	0.00563	–	–	–	–
[1], 308.2 K	–	–	–	–	200
[1], 313.15 K	–	876	–	–	–
[1], 313.2 K	–	–	–	–	155.8
[1], 313.9 K	0.00765	–	–	–	–
[1], 318.15 K	–	–	–	0.1533	–
[1], 318.2 K	–	–	–	–	123.4
[1], 318.4 K	0.00943	–	–	–	–
[1], 323.15 K	–	869.7	–	–	–
[1], 323.2 K	–	–	–	–	99.18
[1], 323.6 K	0.0118	–	–	–	–
[1], 328 K	0.0144	–	–	–	–
[1], 328.2 K	–	–	–	–	80.79
[1], 329.17 K	–	–	–	0.151	–
[1], 333.15 K	–	863.6	–	–	–
[1], 333.2 K	–	–	–	–	66.6
[1], 333.6 K	0.018	–	–	–	–
[1], 336.96 K	–	–	–	0.15	–
[1], 338.2 K	–	–	–	–	55.39
[1], 338.9 K	0.0223	–	–	–	–
[1], 343 K	0.026	–	–	–	–
[1], 343.15 K	–	857.5	–	–	–
[1], 343.2 K	–	–	–	–	46.46
[1], 347.73 K	–	–	–	0.1497	–
[1], 348.2 K	–	–	–	–	39.52
[1], 349.3 K	0.0325	–	–	–	–
[1], 353.15 K	–	851.5	–	–	–
[1], 353.2 K	–	–	–	–	33.7
[1], 357.74 K	–	–	–	0.1476	–
[1], 358.2 K	–	–	–	–	28.97
[1], 363.15 K	–	845.4	–	–	–
[1], 363.2 K	–	–	–	–	25.05
[1], 368.2 K	–	–	–	–	21.82
[2], 293.15 K	–	–	1133.3	–	–
[2], 298.15 K	–	–	1141.7	–	–
[2], 303.15 K	–	–	1149.5	–	–
[2], 308.15 K	–	–	1156.7	–	–
[2], 313.15 K	–	–	1163.9	–	–
[2], 318.15 K	–	–	1169.3	–	–
[2], 323.15 K	–	–	1176.4	–	–
[2], 328.15 K	–	–	1182.4	–	–
[2], 333.15 K	–	–	1189	–	–
[2], 338.15 K	–	–	1196.8	–	–
[2], 343.15 K	–	–	1204	–	–
[2], 348.15 K	–	–	1211.2	–	–
[2], 353.15 K	–	–	1219	–	–
[2], 358.15 K	–	–	1227.4	–	–
[2], 363.15 K	–	–	1235.2	–	–

— the NIST ThermoML archive (doi:10.1016/j.jct.2018.02.013)
